This passage reports IC50 results from US11299501B2 (BRISTOL-MYERS SQUIBB COMPANY, priority 2017, dated 2022).

Type in all cases: cell-based
One assay concerns the target T1, human TLR8 (Homo sapiens, UniProt Q9NR97).
T1 construct: host or cells: HEK-Blue cells
T1 sequence (Q9NR97 27-1041): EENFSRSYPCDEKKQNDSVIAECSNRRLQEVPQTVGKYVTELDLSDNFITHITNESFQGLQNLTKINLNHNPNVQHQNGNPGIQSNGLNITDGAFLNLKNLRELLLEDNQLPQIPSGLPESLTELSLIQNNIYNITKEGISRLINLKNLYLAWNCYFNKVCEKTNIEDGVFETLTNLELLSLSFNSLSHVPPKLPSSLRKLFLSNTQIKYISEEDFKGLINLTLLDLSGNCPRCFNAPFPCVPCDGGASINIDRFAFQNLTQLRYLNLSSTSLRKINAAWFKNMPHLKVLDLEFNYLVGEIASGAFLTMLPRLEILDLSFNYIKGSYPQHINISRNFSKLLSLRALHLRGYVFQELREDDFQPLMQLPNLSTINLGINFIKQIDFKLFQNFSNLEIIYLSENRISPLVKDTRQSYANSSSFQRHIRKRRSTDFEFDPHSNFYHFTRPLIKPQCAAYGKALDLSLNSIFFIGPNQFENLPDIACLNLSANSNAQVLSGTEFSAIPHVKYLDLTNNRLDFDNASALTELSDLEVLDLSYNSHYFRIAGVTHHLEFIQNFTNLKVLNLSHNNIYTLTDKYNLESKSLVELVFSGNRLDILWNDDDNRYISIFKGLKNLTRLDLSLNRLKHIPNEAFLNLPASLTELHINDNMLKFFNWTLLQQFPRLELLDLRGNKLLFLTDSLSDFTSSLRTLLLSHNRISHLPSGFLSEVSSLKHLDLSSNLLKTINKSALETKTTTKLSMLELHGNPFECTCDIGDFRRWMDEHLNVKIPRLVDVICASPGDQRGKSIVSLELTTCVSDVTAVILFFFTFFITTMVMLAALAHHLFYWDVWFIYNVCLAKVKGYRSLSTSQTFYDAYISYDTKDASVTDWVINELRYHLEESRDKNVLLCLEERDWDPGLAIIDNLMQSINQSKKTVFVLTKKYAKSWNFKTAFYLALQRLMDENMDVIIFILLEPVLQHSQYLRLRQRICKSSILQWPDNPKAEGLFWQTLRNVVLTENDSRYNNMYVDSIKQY
The assay is described as follows: TLR8 inhibition reporter assay (HEK-Blue SEAP). The conditions noted are these: cells overexpressing human TLR8, SEAP reporter, stimulated with R848 15.9 μM, 22 hour incubation. The procedure: (§1) TLR7/8/9 Inhibition Reporter Assays
(§2) […] (Invivogen) overexpressing human TLR7, TLR8 or TLR9 receptors were used for screening inhibitors of these receptors using an inducible SEAP (secreted embryonic alkaline phosphatase) reporter gene under the control of the IFN-β minimal promoter fused to five NF-κB and AP-1-binding sites. Briefly, cells are seeded into Greiner 384 well plates (15000 cells per well for TLR7, 20,000 for TLR8 and 25,000 for TLR9) and then treated with test compounds in DMSO to yield a final dose response concentration range of 0.05 nM-50 μM. After a 30 minute compound pre-treatment at room temperature, the cells are then stimulated with a TLR7 ligand (gardiquimod at a final concentration of 7.5 μM). TLR8 ligand (R848 at a final concentration of 15.9 μM) or TLR9 ligand (ODN2006 at a final concentration of 5 nM) to activate NF-κB and AP-1 which induce the production of SEAP. After a 22 hour incubation at 37° C., 5% CO2, SEAP levels are determined with the addition of HEK-Blue™ Detection reagent (Invivogen), a cell culture medium that allows for detection of SEAP, according to manufacturer's specifications. The percent inhibition is determined as the % reduction in the HEK-Blue signal present in wells treated with agonist plus DMSO alone compared to wells treated with a known inhibitor.

The target in the next assay is T2, human TLR9 (Homo sapiens, UniProt Q9NR96).
T2 construct: host or cells: HEK-Blue cells
T2 sequence (Q9NR96 26-1032): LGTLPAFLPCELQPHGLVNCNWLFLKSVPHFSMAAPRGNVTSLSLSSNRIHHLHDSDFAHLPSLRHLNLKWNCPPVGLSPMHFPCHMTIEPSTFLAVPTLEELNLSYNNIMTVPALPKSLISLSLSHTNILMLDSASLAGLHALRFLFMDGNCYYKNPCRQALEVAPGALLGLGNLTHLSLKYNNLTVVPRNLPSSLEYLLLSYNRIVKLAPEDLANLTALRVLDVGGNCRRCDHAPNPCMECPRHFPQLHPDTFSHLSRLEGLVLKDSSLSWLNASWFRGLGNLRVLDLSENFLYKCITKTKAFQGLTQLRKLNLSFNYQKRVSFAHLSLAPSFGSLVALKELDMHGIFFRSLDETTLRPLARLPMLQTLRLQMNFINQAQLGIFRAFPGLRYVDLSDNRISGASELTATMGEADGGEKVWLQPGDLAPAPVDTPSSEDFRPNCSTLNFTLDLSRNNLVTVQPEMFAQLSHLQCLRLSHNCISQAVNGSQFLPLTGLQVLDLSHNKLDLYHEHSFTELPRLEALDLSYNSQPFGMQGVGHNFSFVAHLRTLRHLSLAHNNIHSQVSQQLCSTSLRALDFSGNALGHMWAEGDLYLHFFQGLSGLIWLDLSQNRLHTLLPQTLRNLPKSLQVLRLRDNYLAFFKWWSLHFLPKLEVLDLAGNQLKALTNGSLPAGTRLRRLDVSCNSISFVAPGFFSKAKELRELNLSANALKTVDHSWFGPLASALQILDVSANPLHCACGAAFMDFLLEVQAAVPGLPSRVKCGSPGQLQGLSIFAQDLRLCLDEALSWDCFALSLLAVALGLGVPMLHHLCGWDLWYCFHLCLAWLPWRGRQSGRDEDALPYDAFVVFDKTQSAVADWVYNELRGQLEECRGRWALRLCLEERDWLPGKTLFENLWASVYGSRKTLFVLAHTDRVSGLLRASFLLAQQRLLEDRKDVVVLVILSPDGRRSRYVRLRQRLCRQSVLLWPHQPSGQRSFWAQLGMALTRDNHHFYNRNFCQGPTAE
Briefly: TLR9 inhibition reporter assay (HEK-Blue SEAP). The conditions noted are these: cells overexpressing human TLR9, SEAP reporter, stimulated with ODN2006 5 nM, 22 hour incubation. The procedure: as §1, §2

The target in another assay is T3, human TLR7 (Homo sapiens, UniProt Q9NYK1).
T3 construct: host or cells: HEK-Blue cells
T3 sequence (Q9NYK1 27-1049): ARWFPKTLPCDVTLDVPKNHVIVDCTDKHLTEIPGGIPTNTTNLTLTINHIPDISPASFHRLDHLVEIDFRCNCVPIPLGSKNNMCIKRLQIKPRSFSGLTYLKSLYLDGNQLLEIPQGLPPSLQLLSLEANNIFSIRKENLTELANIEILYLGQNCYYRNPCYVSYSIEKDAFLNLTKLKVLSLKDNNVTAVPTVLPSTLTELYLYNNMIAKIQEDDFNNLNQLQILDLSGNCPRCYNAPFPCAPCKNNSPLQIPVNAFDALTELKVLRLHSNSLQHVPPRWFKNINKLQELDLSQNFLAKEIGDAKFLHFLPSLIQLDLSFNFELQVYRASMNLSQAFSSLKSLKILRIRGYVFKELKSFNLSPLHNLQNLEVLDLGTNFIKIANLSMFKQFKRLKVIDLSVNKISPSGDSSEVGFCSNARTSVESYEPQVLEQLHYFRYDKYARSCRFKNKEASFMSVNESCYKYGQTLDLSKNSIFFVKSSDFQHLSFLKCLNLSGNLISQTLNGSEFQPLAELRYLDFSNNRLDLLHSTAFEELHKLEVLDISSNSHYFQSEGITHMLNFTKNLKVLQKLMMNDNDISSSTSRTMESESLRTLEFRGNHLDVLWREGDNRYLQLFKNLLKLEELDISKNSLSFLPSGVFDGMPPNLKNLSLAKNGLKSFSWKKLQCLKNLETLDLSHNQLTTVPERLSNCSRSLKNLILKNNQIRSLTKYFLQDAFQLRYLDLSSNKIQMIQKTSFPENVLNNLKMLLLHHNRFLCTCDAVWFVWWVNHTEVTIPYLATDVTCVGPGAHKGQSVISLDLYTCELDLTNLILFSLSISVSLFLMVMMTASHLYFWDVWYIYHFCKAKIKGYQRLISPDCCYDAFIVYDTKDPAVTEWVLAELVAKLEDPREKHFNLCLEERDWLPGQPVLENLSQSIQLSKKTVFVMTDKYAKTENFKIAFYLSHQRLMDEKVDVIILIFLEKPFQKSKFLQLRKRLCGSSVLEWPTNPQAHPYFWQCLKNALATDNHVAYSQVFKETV
The assay is described as follows: TLR7 inhibition reporter assay (HEK-Blue SEAP). Conditions: cells overexpressing human TLR7, SEAP reporter, stimulated with gardiquimod 7.5 μM, 22 hour incubation. The procedure:
as §1, §2

With `Cc1cc(-c2[nH]c3cnc(C4CCN(C5COC5)CC4)nc3c2C(C)C)cn2ncnc12` [Example 24, 6-(7-isopropyl-2-(1-(oxetan-3-yl)piperidin-4-yl)-5H-pyrrolo[3,2-d]pyrimidin-6-yl)-8-methyl-[1,2,4]triazolo[1,5-a]pyridine], the IC50 at human TLR8 is under 100 nM; at human TLR9, 1000 to 50000 nM; against human TLR7 it was under 100 nM.

Take `CCc1c(-c2ccnc3[nH]ncc23)[nH]c2cnc(C3CCN(C4CCN(C(C)C)CC4)CC3)nc12` [Example 25, 4-(7-ethyl-2-(1′-isopropyl-[1,4′-bipiperidin]-4-yl)-5H-pyrrolo[3,2-d]pyrimidin-6-yl)-1H-pyrazolo[3,4-b]pyridine]: the IC50 against human TLR8, on human TLR9 and against human TLR7 was 100 to 1000 nM in each case.

Turning to `CCc1c(-c2ccc(OC)c(OC)c2)[nH]c2cnc(C3CCN(C4CCN(C(C)C)CC4)CC3)nc12` [Example 26, 6-(3,4-dimethoxyphenyl)-7-ethyl-2-(1′-isopropyl-[1,4′-bipiperidin]-4-yl)-5H-pyrrolo[3,2-d]pyrimidine], the concentration for half-maximal inhibition (IC50) on human TLR8 was under 100 nM; at human TLR9, 100 to 1000 nM; on human TLR7, under 100 nM.

In the case of `Cc1c(-c2[nH]c3cnc(C4CCN(CC(C)(C)O)CC4)nc3c2C(C)C)cn2ncnc2c1C` [Example 27, 1-(4-(6-(7,8-dimethyl-[1,2,4]triazolo[1,5-a]pyridin-6-yl)-7-isopropyl-5H-pyrrolo[3,2-d]pyrimidin-2-yl)piperidin-1-yl)-2-methylpropan-2-ol], the IC50 against human TLR8 was under 100 nM; against human TLR9, 1000 to 50000 nM; on human TLR7 it was under 100 nM.

As for `Cc1c(-c2[nH]c3cnc(C4CCN(C(=O)CN(C)C)CC4)nc3c2C(C)C)cn2ncnc2c1C` [Example 28, 1-(4-(6-(7,8-dimethyl-[1,2,4]triazolo[1,5-a]pyridin-6-yl)-7-isopropyl-5H-pyrrolo[3,2-d]pyrimidin-2-yl)piperidin-1-yl)-2-(dimethylamino)ethan-1-one], the concentration for half-maximal inhibition (IC50) was under 100 nM on human TLR8, 1000 to 50000 nM against human TLR9 and under 100 nM at human TLR7.

Turning to `Cc1cc(-c2[nH]c3cnc(C4CCN(CC(=O)N(C)C)CC4)nc3c2C(C)C)cn2ncnc12` [Example 29, 2-(4-(7-isopropyl-6-(8-methyl-[1,2,4]triazolo[1,5-a]pyridin-6-yl)-5H-pyrrolo[3,2-d]pyrimidin-2-yl)piperidin-1-yl)-N,N-dimethylacetantide], the IC50 was under 100 nM against human TLR8, 1000 to 50000 nM against human TLR9 and under 100 nM at human TLR7.

For the molecule `CNC(=O)CN1CCC(c2ncc3[nH]c(-c4cc(C)c5ncnn5c4)c(C(C)C)c3n2)CC1` [Example 30, 2-(4-(7-isopropyl-6-(8-methyl-[1,2,4]triazolo[1,5-a]pyridin-6-yl)-5H-pyrrolo[3,2-d]pyrimidin-2-yl)piperidin-1-yl)-N-tnethylacetamide], the figures for the IC50 on human TLR8, against human TLR9 and on human TLR7 were under 100 nM, over 50000 nM and under 100 nM, respectively.

`COc1cc(-c2[nH]c3cnc(C4CCN(CC(=O)N(C)C)CC4)nc3c2C(C)C)cn2ncnc12` [Example 31, 2-(4-(7-isopropyl-6-(8-methoxy-[1,2,4]triazolo[1,5-a]pyridin-6-yl)-5H-pyrrolo[3,2-d]pyrimidin-2-yl)piperidin-1-yl)-N,N-dimethylacetamide]: the results for the concentration for half-maximal inhibition (IC50) against human TLR8, on human TLR9 and on human TLR7 were under 100 nM, 1000 to 50000 nM and under 100 nM, respectively.

With `Cc1cc(-c2[nH]c3cnc(C4CCN(CC(=O)N(C)C)CC4)nc3c2C(C)C)cn(C)c1=O` [Example 32, 2-(4-(6-(1,5-dimethyl-6-oxo-1,6-dihydropyridin-3-yl)-7-isopropyl-5H-pyrrolo[3,2-d]pyrimidin-2-yl)piperidin-1-yl)-N,N-dimethylacetainide], the results for the IC50 against human TLR8, against human TLR9 and against human TLR7 were under 100 nM, 1000 to 50000 nM and under 100 nM, respectively.

Take `Cc1cc(-c2[nH]c3cnc(C4CCN(C(=O)CN(C)C)CC4)nc3c2C(C)C)cn(C)c1=O` [Example 33, 5-(2-(1-(dimethylglycyl)piperidin-4-yl)-7-isopropyl-5H-pyrrolo[3,2-d]pyrimidin-6-yl)-1,3-dimethylpyridin-2(1H)-one]: the results for the IC50 against human TLR8, at human TLR9 and against human TLR7 were 100 to 1000 nM, 1000 to 50000 nM and under 100 nM, respectively.
